Experimental data published in patent EP0598011B1, “ECDYSTEROID DEPENDENT REGULATION OF GENES IN MAMMALIAN CELLS” (GENENTECH, INC., priority 1991, dated 1993).

How the values were obtained:
GGG = target: T1, GGG (Rattus norvegicus, UniProt P06536); test: Induction of GRE reporter G4M-77CO by GGG (glucocorticoid receptor) in 293 cells; settings: normalized to hGH, SD in parentheses, 2880 min
T1 sequence (P06536 1-795): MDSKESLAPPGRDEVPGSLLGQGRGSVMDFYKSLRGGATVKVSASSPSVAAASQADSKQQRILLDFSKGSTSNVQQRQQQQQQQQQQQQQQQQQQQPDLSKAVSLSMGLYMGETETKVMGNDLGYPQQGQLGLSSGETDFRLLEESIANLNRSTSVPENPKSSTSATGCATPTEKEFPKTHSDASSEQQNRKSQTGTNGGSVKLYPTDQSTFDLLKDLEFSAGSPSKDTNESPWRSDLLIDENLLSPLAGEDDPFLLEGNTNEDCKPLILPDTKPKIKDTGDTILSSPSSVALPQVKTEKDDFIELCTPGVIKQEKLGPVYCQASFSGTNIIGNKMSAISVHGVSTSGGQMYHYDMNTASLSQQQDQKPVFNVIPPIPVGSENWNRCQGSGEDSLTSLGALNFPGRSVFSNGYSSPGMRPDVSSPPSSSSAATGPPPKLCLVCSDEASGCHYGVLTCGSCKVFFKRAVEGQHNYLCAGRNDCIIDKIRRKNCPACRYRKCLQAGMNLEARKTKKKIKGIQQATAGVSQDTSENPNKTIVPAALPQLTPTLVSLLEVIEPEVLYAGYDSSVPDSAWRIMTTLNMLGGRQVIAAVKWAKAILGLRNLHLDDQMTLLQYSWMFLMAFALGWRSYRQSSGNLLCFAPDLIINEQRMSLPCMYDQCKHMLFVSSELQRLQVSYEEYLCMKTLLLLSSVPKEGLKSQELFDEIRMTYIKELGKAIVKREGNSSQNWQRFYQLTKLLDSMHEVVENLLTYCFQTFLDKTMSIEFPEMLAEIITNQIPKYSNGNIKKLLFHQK

GGEc = target: T2, GGEc (Drosophila melanogaster, UniProt P34021); test: Induction of GRE reporter G4M-77CO by chimeric receptor GGEc in 293 cells; assay type: cell-based; settings: GRE reporter G4M-77CO
T2 construct: expressed in transfected cells; host or cells: 293 cells
T2 sequence (P34021 329-878): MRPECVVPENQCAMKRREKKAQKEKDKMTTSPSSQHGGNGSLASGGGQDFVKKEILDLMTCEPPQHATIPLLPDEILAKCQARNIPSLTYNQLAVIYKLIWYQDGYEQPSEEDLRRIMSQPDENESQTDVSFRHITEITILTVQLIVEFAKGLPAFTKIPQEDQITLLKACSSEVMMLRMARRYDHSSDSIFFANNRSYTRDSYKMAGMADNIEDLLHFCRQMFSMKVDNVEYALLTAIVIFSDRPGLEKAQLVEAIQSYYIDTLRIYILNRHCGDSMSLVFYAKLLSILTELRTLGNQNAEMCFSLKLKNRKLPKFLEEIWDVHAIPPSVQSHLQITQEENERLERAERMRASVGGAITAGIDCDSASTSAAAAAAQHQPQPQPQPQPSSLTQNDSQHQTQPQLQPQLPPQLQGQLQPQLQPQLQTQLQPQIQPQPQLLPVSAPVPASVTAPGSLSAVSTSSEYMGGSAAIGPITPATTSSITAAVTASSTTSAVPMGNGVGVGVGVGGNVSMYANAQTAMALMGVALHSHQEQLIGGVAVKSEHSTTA
Text: I choose to determine if the ligand-binding domain of DHR23a could be used to regulate the DNA-binding and transactivation domains of the mammalian glucocorticoid receptor for the following reasons. First, in contrast to DHR23α, high affinity DNA-binding sites for the GR have been identified (M. Beato, Cell 56, 335 [1989]) and reporter genes containing these sites are very strongly regulated. Thus, the sensitivity of our assays could be increased. Secondly, these chimeric receptors could be utilized to selectively regulate endogenous genes in mammalian cells in response to ecdysteroids. I constructed a chimeric gene, GGEc, in which the sequences encoding the ligand-binding domain of the GR were replaced with that of DHR23α (Fig. 4A). […] However, expression of the GRE-containing reporter gene was induced more than 700 fold by GGEc in muristerone-treated cells.

DHR23α = target: T3, DHR23α (Drosophila melanogaster, UniProt P34021); test: DHR23α transactivation of EcRE (Ec4M-77CO) CAT reporter in transfected human 293 cells; assay type: cell-based; settings: pRSV.DHR23α + pEc4M-77CO (EcRE) CAT reporter, ligand 1 µM, 48 hrs
T3 construct: To isolate the full-length DHR23α clones; expressed in transfected cells; host or cells: human 293 cells
T3 sequence (P34021 1-878): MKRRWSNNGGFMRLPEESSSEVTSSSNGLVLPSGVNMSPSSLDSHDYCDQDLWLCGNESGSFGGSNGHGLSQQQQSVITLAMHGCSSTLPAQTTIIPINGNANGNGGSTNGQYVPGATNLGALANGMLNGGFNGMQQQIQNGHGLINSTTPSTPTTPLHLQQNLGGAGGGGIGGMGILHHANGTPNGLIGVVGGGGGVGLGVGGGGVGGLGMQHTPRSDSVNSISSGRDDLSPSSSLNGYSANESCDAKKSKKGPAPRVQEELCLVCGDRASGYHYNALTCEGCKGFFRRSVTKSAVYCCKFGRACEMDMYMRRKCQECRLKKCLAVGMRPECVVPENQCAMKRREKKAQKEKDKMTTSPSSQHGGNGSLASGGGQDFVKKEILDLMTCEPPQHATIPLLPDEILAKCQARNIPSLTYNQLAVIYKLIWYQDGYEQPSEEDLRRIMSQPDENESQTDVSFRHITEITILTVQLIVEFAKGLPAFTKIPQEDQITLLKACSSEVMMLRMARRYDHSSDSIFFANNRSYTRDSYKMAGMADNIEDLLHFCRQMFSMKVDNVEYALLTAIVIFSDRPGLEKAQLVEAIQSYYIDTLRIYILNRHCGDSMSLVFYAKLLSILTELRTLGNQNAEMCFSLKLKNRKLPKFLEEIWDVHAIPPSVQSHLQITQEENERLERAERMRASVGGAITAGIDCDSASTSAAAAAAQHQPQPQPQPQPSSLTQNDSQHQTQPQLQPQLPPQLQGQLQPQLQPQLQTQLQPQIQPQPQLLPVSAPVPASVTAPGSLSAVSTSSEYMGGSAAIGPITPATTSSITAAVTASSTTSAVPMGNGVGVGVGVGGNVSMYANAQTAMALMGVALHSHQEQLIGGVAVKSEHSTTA
T3 sequence (P19793 1-462 partner): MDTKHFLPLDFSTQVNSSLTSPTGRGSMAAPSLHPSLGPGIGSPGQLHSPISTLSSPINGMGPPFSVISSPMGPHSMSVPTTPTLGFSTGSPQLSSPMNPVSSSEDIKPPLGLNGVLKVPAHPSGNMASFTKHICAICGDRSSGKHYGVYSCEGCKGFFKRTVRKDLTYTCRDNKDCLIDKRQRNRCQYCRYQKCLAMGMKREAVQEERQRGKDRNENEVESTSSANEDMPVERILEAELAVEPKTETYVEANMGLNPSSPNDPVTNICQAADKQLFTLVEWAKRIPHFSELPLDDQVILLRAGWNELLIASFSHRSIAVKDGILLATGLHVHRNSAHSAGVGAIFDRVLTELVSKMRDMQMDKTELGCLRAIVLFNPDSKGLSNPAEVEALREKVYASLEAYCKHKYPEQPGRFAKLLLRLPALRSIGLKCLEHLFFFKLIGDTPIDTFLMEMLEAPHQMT
Method: Figure. 2. […] Human 293 cells were cotransfected with 2.5 µg of the expression plasmid pRSV.DHR23α or the parental expression plasmid pRSV (Control) and 0.5 µgs of the reporter plasmid pEc4M-77CO (EcRE) or pG4M-77CO (GRE). As a control for transfection efficiency, 0.5 µgs of the control plasmid pRSV.hGH was included in the transfection mixture. After transfection, cells were treated without (-) or with alpha-ecdysone (alpha), 20-OH ecdysone (20-OH), polypodine B (ppB), ponasterone A (ponA) or muristeroine A (murA). CAT extracts were harvested 48 hrs after transfection and assayed. The values were normalized to the expression of hGH and the average values of three independent experiments are shown. The "fold induction" represents the level of expression of the reporter gene in cells incubated with hormone divided by the expression of that reporter gene in extracts from cells incubated in the absence of added ligand.
I determined whether DHR23α could function in mammalian cells treated with ecdysteroids to enhance the transcription of a reporter gene containing EcREs linked to the murine mammary tumor virus (MTV) promoter and chloramphenicol acetyltransferase (CAT) gene. Human 293 cells were cotransfected with an RSV-based expression vector that encodes DHR23a and the reporter gene Ec4M-77CO that contains 4 copies of an ecdysone response element (EcRE) from the Drosophila HSP27 promoter (G. Riddihough and H. R. B. Pelham, EMBO J. 6, 3729 [1987]) linked to an MTV promoter-CAT construct.
Human 293 cells were cotransfected with 2.5 µg of the expression plasmid pRSV.DHR23α or the parental expression plasmid pRSV (Control) and 0.5 µgs of the reporter plasmid pEc4M-77CO (EcRE) or pG4M-77CO (GRE). As a control for transfection efficiency, 0.5 µgs of the control plasmid pRSV.hGH was included in the transfection mixture. After transfection, cells were treated without (-) or with alpha-ecdysone (alpha), 20-OH ecdysone (20-OH), polypodine B (ppB), ponasterone A (ponA) or muristeroine A (murA). All candidate ligands were added at a concentration of 1 µM. CAT extracts were harvested 48 hrs after transfection, and assays were performed as described (D. R. Cavener, Nucl. Acids Res. 15, 1353-1361 [1987]). The values were normalized to the expression of hGH and the average values of three independent experiments are shown in Figure 2. The "fold induction" represents the level of expression of the reporter gene in cells incubated with hormone divided by the expression of that reporter gene in extracts from cells incubated in the absence of added ligand.
Cells were transfected with the DHR23α expression vector and Ec4M-77CO reporter gene and treated without (-) or with the following hormones (1 µM): muristerone A (mur A) dexamethasone (Dex) 17β-estradiol (E2), aldosterone (Aldo), corticosterone (Cort) hydroxycorticosterone (OH-Cort) thyroid hormone (T3), promegestone (Promeg) or 1,25-dihydroxy vitamin D3 (VD3). Reporter gene activity was determined as described above for Figure 2.

drosophila cell lines = settings: cited from earlier work

Row | Structure (SMILES) | fold induction (GGG) [fold] | relative efficacies of ecdysteroids as agonists for the chimeric receptor (GGEc) | agonist for DHR23α in mammalian cells (expression of the reporter gene) (DHR23α) | agonist activity in drosophila cell lines (drosophila cell lines) | agonist for DHR23α in mammalian cells (expression of the reporter gene) (DHR23α; 1 µM)
1 | C[C@@H]1C[C@H]2[C@@H]3CCC4=CC(=O)C=C[C@]4(C)[C@@]3(F)[C@@H](O)C[C@]2(C)[C@@]1(O)C(=O)CO [dexamethasone] | 347 | – | – | – | –
2 | C[C@H]([C@H](O)CCC(C)(C)O)[C@H]1CC[C@@]2(O)C3=CC(=O)[C@@H]4C[C@@H](O)[C@@H](O)C[C@]4(C)[C@H]3CC[C@]12C [α-ecdysone] | – | neither α-ecdysone, 20-OH ecdysone or polypodine B acted as agonists | Neither α-ecdysone, 20-OH ecdysone, nor polypodine B acted as agonists | – | –
3 | CC(C)(O)CC[C@@H](O)[C@](C)(O)[C@H]1CC[C@@]2(O)C3=CC(=O)[C@]4(O)C[C@@H](O)[C@@H](O)C[C@]4(C)[C@H]3CC[C@]12C [polypodine B] | – | neither α-ecdysone, 20-OH ecdysone or polypodine B acted as agonists | Neither α-ecdysone, 20-OH ecdysone, nor polypodine B acted as agonists | agonists | –
4 | CC(C)CC[C@@H](O)[C@](C)(O)[C@H]1CC[C@@]2(O)C3=CC(=O)[C@@H]4C[C@@H](O)[C@@H](O)C[C@]4(C)[C@H]3CC[C@]12C [ponasterone A] | – | weak | weak agonist | – | –
5 | CC(C)(O)CC[C@@H](O)[C@](C)(O)[C@H]1CC[C@@]2(O)C3=CC(=O)[C@@H]4C[C@@H](O)[C@@H](O)C[C@]4(C)[C@H]3CC[C@]12C [20-OH ecdysone] | – | neither α-ecdysone, 20-OH ecdysone or polypodine B acted as agonists | Neither α-ecdysone, 20-OH ecdysone, nor polypodine B acted as agonists | agonists | inactive
